# Patent US11179410B2, “Pharmaceutical composition for improving, preventing or treating muscle related disease comprising ginsenoside Rh2” (KOREA ADVANCED INSTITUTE OF SCIENCE AND TECHNOLOGY, priority 2018, dated 2021)
# What was measured:
# Type in all cases: cell-based, mouse
# [1] = system: MSTN-induced atrophic myotube cells (C2C12); test: Myotube width in MSTN-induced atrophic myotubes treated with Rh2
# Method: (§1) C2C12 myotube cells were fixed with 4% (w/v) paraformaldehyde (Biosesang) for 15 minutes and then treated with 0.2% (v/v) Triton X-100, and blocked with 5% (w/v) BSA for 6 h. The cells were then stained with Myosin Heavy Chain (MHC) antibody (Santa Cruz, sc-20641, 1: 1000) for 12 h at 4° C. and then incubated with Alexa Fluor 488 conjugated secondary antibody at room temperature for 4 h. Images were acquired via HCS equipment (Molecular Devices) and quantified using ImageJ software. The width of myotube cells was quantified by measuring a total of more than 100 myotube cell widths in randomly selected five regions. The width per myotube was determined as the average of three independent measurements.
# To investigate the effect of Rh2 on MSTN-induced atrophy, myotubes were treated with 0.4 ug/ml MSTN alone for 24 hours or treated with combination of 0.4 ug/ml MSTN and 1 ug/ml or 10 ug/ml Rh2 (Sigma, 73658) for 24 hours. In order to measure the change of the myotube width, the myotube cells were stained with MHC antibody as in the above Experimental Example 1, and cell images were obtained using HCS, and the width of myotube was quantified using ImageJ.
# pSmad2/Smad2 = test: Western blotting of pSmad2 in MSTN-induced atrophic myotube cells
# Method: (§2) MSTN is known to induce atrophy by increasing UPP-mediated protein degradation through activation of the ActRIIB-Smad2 signaling pathway. Phosphorylated Smad2 (pSmad2) activates this UPP-mediated proteolytic signaling. Activated UPP is involved in the degradation of MyoD and is regulated by the E3 ligase, MAFbx. To investigate the mechanism of Rh2 in this signal transduction, changes of the amount of Rh2-induced phosphorylation of Smad2 and the amount of MAFbx and MyoD expression were determined. For this purpose, myotube cells were treated with 0.4 μg/ml MSTN alone, or with combination of 0.4 μg/ml MSTN and 1 μg/ml or 10 μg/ml Rh2. Western blotting was performed using pSmad2 antibody, MAFbx antibody, and MyoD antibody respectively.
# (§3) The bands of Western blot and the relative fold change values of pSmad2/Smad2, MAFbx/GAPDH and MyoD/GAPDH in each treatment conditions were shown in FIG. 4.
# MAFbx = test: Western blotting of MAFbx in MSTN-induced atrophic myotube cells
# Method: as §2, §3
# MyoD = test: Western blotting of MyoD in MSTN-induced atrophic myotube cells
# Method: as §2, §3
# C2C12 myotube cells = test: Induction of muscular atrophy cell model: myotube width after MSTN treatment; conditions: 24 hours, C2C12 myotubes
# Method: The model of muscular atrophy was constructed by differentiating mouse myoblast cell lines (C2C12 ATCC CRL-1772) into myotube cells followed by treating with MSTN.
# Specifically, the cell lines were cultured in DMEM (Gibco) supplemented with 10% (v/v) Fetal Bovine Serum (FBS), 100 U/ml penicillin and 100 U/ml streptomycin (Sigma) at 37° C. in 5% CO2. For differentiating the cell lines into myotube cells, the cells were grown to 80-90% confluence and then cultured in DMEM supplemented with 2% (v/v) horse serum (Horse Serum, HS, Gibco). To verify the differentiation into myotube cells, the merge of multiple myoblasts to one long myotube cells were observed by the microscopic images.
# In order to induce an atrophy model, differentiated myotube cells were cultured in serum-free DMEM medium for 3 hours, and then MSTN was treated with 0.4 μg/ml, […], 0.8 μg/ml and 1.2 μg respectively for 24 hours. […]
# as §1, with “The cells were then stained with Myosin Heavy Chain (MHC) antibody (Santa Cruz, sc-20641, 1: 1000) for 12 h at 4° C. and then incubated with Alexa Fluor 488 conjugated secondary antibody at room temperature for 4 h.” left out
Compound,"width of myotube as % of that of normal cells ([1]; 0.4 ug/ml MSTN + 1 ug/ml Rh2, 24 hours)","width of myotube as % of that of normal cells ([1]; 0.4 ug/ml MSTN + 10 ug/ml Rh2, 24 hours)",amount of pSmad2 (pSmad2/Smad2) relative to normal conditions (pSmad2/Smad2; 0.4 μg/ml MSTN + 10 ug/ml Rh2),amount of MAFbx (MAFbx/GAPDH) relative to normal conditions (MAFbx; 0.4 μg/ml MSTN + 10 ug/ml Rh2),amount of MyoD (MyoD/GAPDH) relative to normal conditions (MyoD; 0.4 μg/ml MSTN + 10 ug/ml Rh2),"decrease of width of myotube compared to the normal (C2C12 myotube cells; 0.4 ug/ml MSTN, control width = 1.0)",decrease of width of myotube compared to the normal (C2C12 myotube cells; as the concentration of MSTN increased (up to 1.2 μg)),"reduction of width of myotube compared to normal cells ([1]; 0.4 ug/ml MSTN alone, 24 hours)","amount of pSmad2 (pSmad2/Smad2), increase compared with normal condition (pSmad2/Smad2; 0.4 μg/ml MSTN alone)","amount of MAFbx (MAFbx/GAPDH), increase compared with normal condition (MAFbx; 0.4 μg/ml MSTN alone)","amount of MyoD (MyoD/GAPDH), % of the normal condition (MyoD; 0.4 μg/ml MSTN alone)"
"CC(C)=CCC[C@](C)(O)[C@H]1CC[C@]2(C)[C@@H]1[C@H](O)C[C@@H]1[C@@]3(C)CC[C@H](O[C@@H]4O[C@H](CO)[C@@H](O)[C@H](O)[C@H]4O)C(C)(C)[C@@H]3CC[C@]12C [Rh2, ginsenoside Rh2]",about 70%,above 100%,kept at the same level as normal conditions,kept at the same level as normal conditions,kept at the same level as normal conditions,–,–,–,–,–,–
Myostatin [MSTN],–,–,–,–,–,about 45%,about 60%,about 50%,about 50%,about 50%,about 30%
